EC50 data for 31 compounds are collected here from patent US9663496B2, “AMPK-activating heterocyclic compounds and methods for using the same” (Rigel Pharmaceuticals, Inc., priority 2010, dated 2017).

Bounds are passed on as bounds.

The target in the assay is AMPK. Description: AMPK activation, enzyme-linked immunosorbent assay. The assay is classed as biochemical. The conditions noted are these: EC50 for AMPK activation, ELISA. A digest of the protocol:
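Kit-based immunoassay; compounds screened as activators; standard reagents and protocol.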
As to `N#Cc1ccc(N2CCC(NC(=O)c3ccc(C(=O)N4CCN(Cc5ccc(F)cc5)CC4)nc3)CC2)cc1` [Compound 417, N-(1-(4-cyanophenyl)piperidin-4-yl)-6-(4-(4-fluorobenzyl)piperazine-1-carbonyl)nicotinamide], the EC50 was under 500 nM.

`CC(C)(C)OC(=O)N1CCC(NC(=O)c2ccc(C(=O)N3CCC(Oc4ccc(C#N)cc4)CC3)nc2)CC1` [Compound 333, tert-butyl 4-(6-(4-(4-cyanophenoxy)piperidine-1-carbonyl)nicotinamido)piperidine-1-carboxylate]: the EC50 is under 500 nM. The result for `CC(C)(c1ccccc1)N1CCN(C(=O)c2ccc(C(=O)NC3CCN(Cc4ccc(C#N)cc4)CC3)nc2)CC1` [Compound 133, N-(1-(4-cyanobenzyl)piperidin-4-yl)-5-(4-(2-phenylpropan-2-yl)piperazine-1-carbonyl)picolinamide] reads under 500 nM; that for `CC(=O)c1ccc(OC2CCN(C(=O)c3ccc(C(=O)NC4CCN(Cc5ccc(F)cc5)CC4)cn3)CC2)cc1` [Compound 391, 6-(4-(4-acetylphenoxy)piperidine-1-carbonyl)-N-(1-(4-fluorobenzyl)piperidin-4-yl)nicotinamide], under 500 nM. Turning to `N#Cc1ccc(O[C@H]2CC[C@@H](NC(=O)c3ccc(C(=O)N4CCC(Oc5ccc(C(F)(F)F)cc5)CC4)cn3)CC2)cc1` [Compound 190, N-((cis)-4-(4-cyanophenoxy)cyclohexyl)-5-(4-(4-(trifluoromethyl)phenoxy)piperidine-1-carbonyl)picolinamide], the concentration for a half-maximal effect (EC50) was under 500 nM. The value for `N#Cc1ccc(OC2CCN(C(=O)c3ccc(C(=O)NC4CCNCC4)cn3)CC2)cc1` [Compound 335, 6-(4-(4-cyanophenoxy)piperidine-1-carbonyl)-N-(piperidin-4-yl)nicotinamide] was over 10000 nM. The result for `CN1CCN(c2ccc(C(=O)C3CCN(C(=O)c4cnc(C(=O)NC5CCN(Cc6ccc(C#N)cc6)CC5)cn4)CC3)cc2)CC1` [Compound 220, N-(1-(4-cyanobenzyl)piperidin-4-yl)-5-(4-(4-(4-methylpiperazin-1-yl)benzoyl)piperidine-1-carbonyl)pyrazine-2-carboxamide] reads under 500 nM; that for `CC(C)S(=O)(=O)c1ccc(N2CCN(C(=O)c3ccc(C(=O)NC4CCN(Cc5ccc(C#N)cc5)CC4)nc3)CC2)cc1` [Compound 251, N-(1-(4-cyanobenzyl)piperidin-4-yl)-5-(4-(4-(isopropylsulfonyl)phenyl)piperazine-1-carbonyl)picolinamide], under 500 nM; that for `N#Cc1ccc(OC2CCN(C(=O)c3ccc(C(=O)NC4CCN(Cc5ccc(F)cc5)CC4)nc3)CC2)cc1` [Compound 200, 5-(4-(4-cyanophenoxy)piperidine-1-carbonyl)-N-(1-(4-fluorobenzyl)piperidin-4-yl)picolinamide], under 500 nM. `N#Cc1ccc(OC2CCN(c3ccc(C(=O)N4CCN(Cc5ccc(F)cc5)CC4)cn3)CC2)cc1` [Compound 188, 4-(1-(5-(4-(4-fluorobenzyl)piperazine-1-carbonyl)pyridin-2-yl)piperidin-4-yloxy)benzonitrile] had an EC50 of 500 to 1000 nM. The result for `O=C(c1ccc(Nc2ccc(Oc3ccccc3)cc2)nc1)N1CCN(Cc2ccc(F)cc2)CC1` [Compound 34, (4-(4-fluorobenzyl)piperazin-1-yl)(6-(4-phenoxyphenylamino)pyridin-3-yl)methanone] reads 1000 to 5000 nM. `N#Cc1ccc(CC2CCC(NC(=O)c3cccc(C(=O)N4CCN(Cc5ccc(F)cc5)CC4)n3)CC2)cc1` (stereo not shown) [Compound 99, N-(4-(4-cyanobenzyl)cyclohexyl)-6-(4-(4-fluorobenzyl)piperazine-1-carbonyl)picolinamide] returned a 50% effective concentration (EC50) of 5000 to 10000 nM. The value for `COc1ccc(C(=O)C2CCN(C(=O)c3ncc(C(=O)NC4CCN(Cc5ccc(C#N)cc5)CC4)cc3CCCNC(=O)OC(C)(C)C)CC2)cc1` [Compound 416, tert-butyl 3-(5-(1-(4-cyanobenzyl)piperidin-4-ylcarbamoyl)-2-(4-(4-methoxybenzoyl)piperidine-1-carbonyl)pyridin-3-yl)propylcarbamate] was 1000 to 5000 nM; that for `N#Cc1ccc(CN2CCC(NC(=O)c3ccc(C(=O)N4CCC(C(=O)c5ccc(N6CCCC6)cc5)CC4)nc3)CC2)cc1` [Compound 377, N-(1-(4-cyanobenzyl)piperidin-4-yl)-6-(4-(4-(pyrrolidin-1-yl)benzoyl)piperidine-1-carbonyl)nicotinamide] was under 500 nM. Consider `O=C(NC1CCN(C(=O)C2CCCCC2)CC1)c1ccc(C(=O)N2CCN(Cc3ccc(F)cc3)CC2)cn1` [Compound 7, N-(1-(cyclohexanecarbonyl)piperidin-4-yl)-5-(4-(4-fluorobenzyl)piperazine-1-carbonyl)picolinamide], for which the EC50 is under 500 nM. The result for `COc1ccc(CN2CCC(NC(=O)c3ccc(C(=O)N4CCC(C(=O)c5ccc(F)cc5F)CC4)cn3)CC2)cc1` [Compound 331, 5-(4-(2,4-difluorobenzoyl)piperidine-1-carbonyl)-N-(1-(4-methoxybenzyl)piperidin-4-yl)picolinamide] reads under 500 nM. As to `COc1ccc(C(=O)C2CCN(C(=O)c3ccc(C(=O)NC4CCN(Cc5ccc(C(=O)N(C)C)cc5)CC4)cn3)CC2)cc1` [Compound 490, N-(1-(4-(dimethylcarbamoyl)benzyl)piperidin-4-yl)-6-(4-(4-methoxybenzoyl)piperidine-1-carbonyl)nicotinamide], the EC50 lay within 1000 to 5000 nM. The value for `CN1CCN(c2ccc(C(=O)C3CCN(C(=O)c4ccc(C(=O)Nc5ccc(Oc6ccc(F)cc6)nc5)cn4)CC3)cc2)CC1` [Compound 245, N-(6-(4-fluorophenoxy)pyridin-3-yl)-6-(4-(4-(4-methylpiperazin-1-yl)benzoyl)piperidine-1-carbonyl)nicotinamide] was under 500 nM. Regarding `CS(=O)(=O)c1ccc(OC2CCN(C(=O)c3ccc(C(=O)NC4CCN(Cc5ccc(N6CCCC6)cc5)CC4)cn3)CC2)cc1` [Compound 230, 6-(4-(4-(methylsulfonyl)phenoxy)piperidine-1-carbonyl)-N-(1-(4-(pyrrolidin-1-yl)benzyl)piperidin-4-yl)nicotinamide], the concentration giving a half-maximal response (EC50) was in the range of 500 to 1000 nM.

For the compound `O=C(N[C@@H]1CCNC[C@@H]1F)c1ccc(C(=O)N2CCN(Cc3ccc(F)cc3)CC2)cn1` (relative stereo) [Compound 102, 5-(4-(4-fluorobenzyl)piperazine-1-carbonyl)-N-(cis-3-fluoropiperidin-4-yl)picolinamide], the 50% effective concentration (EC50) is 5000 to 10000 nM. Compound `CS(=O)(=O)c1ccc(OC2CCN(C(=O)c3ccc(C(=O)N[C@@H]4CCN(Cc5ccc(C#N)cc5)C[C@H]4F)nc3)CC2)cc1` (relative stereo) [Compound 254, N-((trans)-1-(4-cyanobenzyl)-3-fluoropiperidin-4-yl)-5-(4-(4-(methylsulfonyl)phenoxy)piperidine-1-carbonyl)picolinamide] displayed an EC50 of under 500 nM. The compound `N#Cc1ccc(CN2CCC(NC(=O)c3ccc(C(=O)N4CCC(Oc5ccc(C(=O)C6CC6)cc5)CC4)nc3)CC2)cc1` [Compound 456, N-(1-(4-cyanobenzyl)piperidin-4-yl)-6-(4-(4-(cyclopropanecarbonyl)phenoxy)piperidine-1-carbonyl)nicotinamide] registered an EC50 of under 500 nM. As to `COc1ccc(C(=O)C2CCN(C(=O)c3ccc(C(=O)NC4CCN(Cc5cccc(OC)c5)CC4)cn3)CC2)cc1` [Compound 425, 6-(4-(4-methoxybenzoyl)piperidine-1-carbonyl)-N-(1-(3-methoxybenzyl)piperidin-4-yl)nicotinamide], the EC50 is under 500 nM. The result for `O=C(N[C@@H]1CCN(Cc2ccc(Cl)cc2)C[C@@H]1F)c1ccc(C(=O)N2CCN(Cc3ccc(F)cc3)CC2)cn1` (relative stereo) [Compound 127, N-(cis-1-(4-chlorobenzyl)-3-fluoropiperidin-4-yl)-5-(4-(4-fluorobenzyl)piperazine-1-carbonyl)picolinamide] reads under 500 nM; that for `CS(=O)(=O)c1ccc(N2CCN(C(=O)c3ccc(C(=O)NC4CCN(Cc5ccc(C#N)cc5)CC4)nc3)CC2)cc1` [Compound 250, N-(1-(4-cyanobenzyl)piperidin-4-yl)-5-(4-(4-(methylsulfonyl)phenyl)piperazine-1-carbonyl)picolinamide], under 500 nM. Take `N#Cc1ccc(O[C@H]2CC[C@@H](NC(=O)c3ccc(C(=O)N4CCN(Cc5ccc(F)cc5)CC4)cn3)CC2)cc1` [Compound 150, N-(cis-4-(4-cyanophenoxy)cyclohexyl)-5-(4-(4-fluorobenzyl)piperazine-1-carbonyl)picolinamide]: the EC50 is under 500 nM. The result for `COc1ccc(CN2CCC(NC(=O)c3ccc(C(=O)N4CCC(Oc5ccc(F)cc5F)CC4)nc3)CC2)cc1` [Compound 344, 6-(4-(2,4-difluorophenoxy)piperidine-1-carbonyl)-N-(1-(4-methoxybenzyl)piperidin-4-yl)nicotinamide] reads under 500 nM; that for `N#Cc1ccc(OC2CCN(C(=O)c3ccc(C(=O)NCCOc4ccc(F)cc4)nc3)CC2)cc1` [Compound 306, 5-(4-(4-cyanophenoxy)piperidine-1-carbonyl)-N-(2-(4-fluorophenoxy)ethyl)picolinamide], under 500 nM; that for `CS(=O)(=O)c1ccc(OC2CCN(C(=O)c3ccc(C(=O)NC4CCN(Cc5ccc(F)cc5)CC4)nc3)CC2)cc1` [Compound 226, N-(1-(4-fluorobenzyl)piperidin-4-yl)-5-(4-(4-(methylsulfonyl)phenoxy)piperidine-1-carbonyl)picolinamide], under 500 nM.

For `COc1ccc(C(=O)C2CCN(C(=O)c3ccc(C(=O)Nc4ccc(Oc5ccc(C(C)=O)cc5)nc4)cn3)CC2)cc1` [Compound 462, N-(6-(4-acetylphenoxy)pyridin-3-yl)-6-(4-(4-methoxybenzoyl)piperidine-1-carbonyl)nicotinamide], the EC50 was under 500 nM. The value for `CS(=O)(=O)c1ccc(CN2CCC(NC(=O)c3ccc(C(=O)N4CCC(C(=O)c5ccc(F)cc5F)CC4)nc3)CC2)cc1` [Compound 213, 6-(4-(2,4-difluorobenzoyl)piperidine-1-carbonyl)-N-(1-(4-(methylsulfonyl)benzyl)piperidin-4-yl)nicotinamide] was under 500 nM.
